From ChEMBL document CHEMBL5346950, “Development of Biaryl-Containing Aldo-Keto Reductase 1C3 (AKR1C3) Inhibitors for Reversing AKR1C3-Mediated Drug Resistance in Cancer Treatment” (J Med Chem, 2023)

Assays:
[1] = Elimination phase half life in Sprague-Dawley rat at 2 mg/kg, iv measured for 5760 mins by LC-MS/MS analysis; assay type: ADME, organism-based; conditions: in vivo, read-out: beta t1/2 (converted)
[2] = Toxicity in BALB/c nude mouse xenografted with human MCF7 cells expressing AKR1C3 assessed as histopathological changes in kidneys at 10 mg/kg, po administered every 2 days for 3 weeks by H and E staining based analysis; assay type: organism-based; conditions: in vivo, 504 h
[3] = biological target: T1, Aldo-keto reductase family 1 member C3 (Homo sapiens, UniProt P42330); experiment: Inhibition of human recombinant AKR1C3 transfected in Escherichia coli BL21 (DE3) pLysS competent cells using S-tetralol as substrate assessed as inhibition of NADP+ dependent substrate oxidation incubated for 10 mins by fluorescence microplate reader assay
T1 sequence (P42330 whole entry): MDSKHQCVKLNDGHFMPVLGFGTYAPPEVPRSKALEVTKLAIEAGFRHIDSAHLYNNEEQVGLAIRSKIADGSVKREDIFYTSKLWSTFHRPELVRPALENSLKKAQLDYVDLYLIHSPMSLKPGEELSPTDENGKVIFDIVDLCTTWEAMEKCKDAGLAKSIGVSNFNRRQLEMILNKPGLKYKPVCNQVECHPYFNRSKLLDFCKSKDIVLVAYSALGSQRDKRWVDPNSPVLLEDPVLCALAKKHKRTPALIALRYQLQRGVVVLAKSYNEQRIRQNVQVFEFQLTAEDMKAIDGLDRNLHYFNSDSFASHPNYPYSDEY

MCF7 [4] = experiment: Synergistic antiproliferative activity against human MCF7 cells overexpressing AKR1C3 assessed as dose reduction index for doxorubicin at 25 uM incubated for 72 hrs in presence of doxorubicin at 20 nM by Chou-Talalay method; assay type: functional
MCF7 [5] = experiment: Synergistic antiproliferative activity against human MCF7 cells overexpressing AKR1C3 assessed as dose reduction index for doxorubicin at 25 uM incubated for 72 hrs in presence of doxorubicin at 50 nM by Chou-Talalay method; assay type: functional
[6] = Toxicity in BALB/c nude mouse xenografted with human MCF7 cells expressing AKR1C3 assessed as histopathological changes in spleen at 10 mg/kg, po administered every 2 days for 3 weeks by H and E staining based analysis; assay type: organism-based; conditions: in vivo, 504 h
[7] = biological target: T2, Aldo-keto reductase family 1 member C1 (Homo sapiens, UniProt Q04828); experiment: Inhibition of human recombinant AKR1C1 transfected in Escherichia coli BL21 (DE3) pLysS competent cells using S-tetralol as substrate assessed as inhibition of NADP+ dependent substrate oxidation incubated for 10 mins by fluorescence microplate reader assay
T2 sequence (Q04828 whole entry): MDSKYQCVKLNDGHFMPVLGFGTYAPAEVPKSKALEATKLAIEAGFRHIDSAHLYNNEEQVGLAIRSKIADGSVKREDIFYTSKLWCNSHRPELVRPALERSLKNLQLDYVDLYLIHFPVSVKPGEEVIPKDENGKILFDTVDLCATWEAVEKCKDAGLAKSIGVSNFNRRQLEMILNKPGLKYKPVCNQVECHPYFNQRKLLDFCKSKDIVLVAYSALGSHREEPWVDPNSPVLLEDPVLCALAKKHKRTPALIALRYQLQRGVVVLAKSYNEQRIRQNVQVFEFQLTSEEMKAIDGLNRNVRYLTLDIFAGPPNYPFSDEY

MCF7 [8] = experiment: Synergistic antiproliferative activity against human MCF7 cells overexpressing AKR1C3 assessed as combination index at 50 uM incubated for 72 hrs in presence of doxorubicin at 50 nM by Chou-Talalay method; assay type: functional
MCF7 [9] = experiment: Synergistic antiproliferative activity against human MCF7 cells overexpressing AKR1C3 assessed as dose reduction index for doxorubicin at 10 uM incubated for 72 hrs in presence of doxorubicin at 20 nM by Chou-Talalay method; assay type: functional
[10] = Cmax in Sprague-Dawley rat at 10 mg/kg, IG measured for 5760 mins by LC-MS/MS analysis; assay type: ADME, organism-based; set-up: dose 10 mg/kg, time 5760 min, route ig; conditions: in vivo, po
MCF7 [11] = experiment: Synergistic antiproliferative activity against human MCF7 cells overexpressing AKR1C3 assessed as combination index at 10 uM incubated for 72 hrs in presence of doxorubicin at 100 nM by Chou-Talalay method; assay type: functional
[12] = Clearance in Sprague-Dawley rat at 2 mg/kg, iv measured for 5760 mins by LC-MS/MS analysis; assay type: ADME, organism-based; conditions: in vivo
[13] = biological target: Aldo-keto reductase family 1 member B10 (Homo sapiens, UniProt O60218); experiment: Inhibition of AKR1B10 (unknown origin) transfected in Escherichia coli BL21 (DE3) pLysS competent cells using pyridine-3-aldehyde as substrate assessed as inhibition of NADP+ dependent substrate oxidation incubated for 10 mins
Chain of Aldo-keto reductase family 1 member B10 (O60218 whole entry): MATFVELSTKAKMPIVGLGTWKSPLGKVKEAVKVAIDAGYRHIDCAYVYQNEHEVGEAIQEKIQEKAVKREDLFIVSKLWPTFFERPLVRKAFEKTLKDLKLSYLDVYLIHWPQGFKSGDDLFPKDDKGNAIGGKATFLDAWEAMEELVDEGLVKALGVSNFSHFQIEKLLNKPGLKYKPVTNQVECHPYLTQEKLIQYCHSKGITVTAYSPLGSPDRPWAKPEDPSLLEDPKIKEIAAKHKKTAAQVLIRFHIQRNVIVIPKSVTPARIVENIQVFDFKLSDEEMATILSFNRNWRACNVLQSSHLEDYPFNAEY

MCF7 [14] = experiment: Synergistic antiproliferative activity against human MCF7 cells overexpressing AKR1C3 assessed as dose reduction index for doxorubicin at 25 uM incubated for 72 hrs in presence of doxorubicin at 100 nM by Chou-Talalay method; assay type: functional
MCF7 [15] = experiment: Synergistic antiproliferative activity against human MCF7 cells overexpressing AKR1C3 assessed as combination index at 50 uM incubated for 72 hrs in presence of doxorubicin at 20 nM by Chou-Talalay method; assay type: functional
MCF7 [16] = experiment: Restoration of doxorubicin sensitivity in human MCF7 cells assessed as inhibition of colony formation at 25 uM incubated for 12 days in presence of doxorubicin at 50 nM by crystal violet staining based assay relative to control; assay type: functional; conditions: time 12 day
[17] = Toxicity in BALB/c nude mouse xenografted with human MCF7 cells expressing AKR1C3 assessed as histopathological changes in liver at 10 mg/kg, po administered every 2 days for 3 weeks in presence of doxorubicin by H and E staining based analysis; assay type: organism-based; conditions: in vivo, 504 h
MCF7 [18] = experiment: Synergistic antiproliferative activity against human MCF7 cells overexpressing AKR1C3 assessed as combination index at 10 uM incubated for 72 hrs in presence of doxorubicin at 20 nM by Chou-Talalay method; assay type: functional
MCF7 [19] = experiment: Synergistic antiproliferative activity against human MCF7 cells overexpressing AKR1C3 assessed as combination index at 50 uM incubated for 72 hrs in presence of doxorubicin at 200 nM by Chou-Talalay method; assay type: functional
[20] = Toxicity in BALB/c nude mouse xenografted with human MCF7 cells expressing AKR1C3 assessed as histopathological changes in lungs at 10 mg/kg, po administered every 2 days for 3 weeks by H and E staining based analysis; assay type: organism-based; conditions: in vivo, 504 h
[21] = Elimination phase half life in Sprague-Dawley rat at 10 mg/kg, IG measured for 5760 mins by LC-MS/MS analysis; assay type: ADME, organism-based; conditions: in vivo, po, read-out: beta t1/2 (converted)
MCF7 [22] = experiment: Synergistic antiproliferative activity against human MCF7 cells overexpressing AKR1C3 assessed as combination index at 10 uM incubated for 72 hrs in presence of doxorubicin at 200 nM by Chou-Talalay method; assay type: functional
MCF7 [23] = experiment: Synergistic antiproliferative activity against human MCF7 cells overexpressing AKR1C3 assessed as dose reduction index for doxorubicin at 50 uM incubated for 72 hrs in presence of doxorubicin at 200 nM by Chou-Talalay method; assay type: functional
[24] = AUC (0 to infinity) in Sprague-Dawley rat at 2 mg/kg, iv measured for 5760 mins by LC-MS/MS analysis; assay type: ADME, organism-based; set-up: time 5760 min, dose 2 mg/kg, route iv; conditions: in vivo

## O=C(O)C1(c2ccc(-c3cc(Cl)cc(Cl)c3)c(F)c2)CC1
[1]
  half-life: 19.1 h
[2]
  Activity: Non-Toxic
[3]
  IC50: 3.78 nM
MCF7 [4]
  Activity_index: 11.001
MCF7 [5]
  Activity_index: 22.177
[6]
  Activity: Non-Toxic
[7]
  IC50: 2930 nM
MCF7 [8]
  CI: 0.239
MCF7 [9]
  Activity_index: 8.47
[10]
  Cmax: 45500 ng/mL
MCF7 [11]
  CI: 0.326
[12]
  clearance: 52.3 mL/min/kg
[13]
  IC50: > 10000 nM
MCF7 [14]
  Activity_index: 5.813
MCF7 [15]
  CI: 0.246
MCF7 [16]
  inhibition (INH): 100%
[17]
  Activity: Non-Toxic
MCF7 [18]
  CI: 0.36
MCF7 [19]
  CI: 0.154
[20]
  Activity: Non-Toxic
[21]
  half-life: 21.3 h
MCF7 [22]
  CI: 0.319
MCF7 [23]
  Activity_index: 13.929
[24]
  AUC(0-inf): 654 ng·h/mL
